In patent US10035791B2, “Bicyclic compound and pharmaceutical composition thereof for treating stroke and use thereof” (China Medical University, priority 2016, dated 2018):
“Also recorded” adds a separate entry of the source.

How the values were obtained:
[1] = test system: primary cortical cultures (PCCs); assay: Lactate dehydrogenase (LDH) release rate analysis, H2O2-treated PCCs; format: cell-based, C57BL/6 mice
Method: H2O2 can cause an oxidative damage to cells and a destruction of the cell membrane, and consequently the LDH is released into medium. For that reason, the lower rate of the LDH released into the culture medium is represented the fewer damaged cells and better cell protection effect of sample.
Test cells are primary cortical cultures (PCCs) in this example. The PCCs are prepared from cerebral cortexes of gestation day 17 embryos from C57BL/6 mice as described previously (Cell Death Differ 2008; 15: 143-151). The PCCs are maintained under serum-free conditions in neurobasal medium (Invitrogen), supplemented with B-27 supplement (2%; invitrogen), glutamine (0.5 mM; Sigma Aldrich), glutamate ([…]; Sigma Aldrich), penicillin (100 U/ml) and streptomycin ([…]; Invitrogen). At 4 days in vitro, half of the medium is removed and replaced with fresh medium without glutamate. The cultures are maintained in a humidified incubator at 37° C. with 5% CO2. At 7 days in vitro, the PCCs are used for experimentation.
The PCCs are seeded in a 24-well plate and are allowed to stand for 20 minutes. […] The PCCs are maintained at 37° C. in a humidified atmosphere of 5% CO2 for 24 hours. After incubation, the culture medium is collected and washed twice with phosphate buffered saline (PBS), and then are analyzed the LDH activity in the culture medium by using LDH Cytotoxicity Detection Kit (TaKaRa Bio Laboratories, Japan) to calculate the percentage cytotoxicity, which is represented the situation of cells damage, of the PCCs. The lower percentage cytotoxicity presents the lower LDH activity detected and less severe of cells damages, which indicates the better cell protection effect of the sample. The LDH activity is measured by a colorimetry. After a reaction between enzyme and particular substrate, an absorbance of the reaction solution and the LDH activity is linearly correlated. The LDH activity (U/10^−3 L) is calculated by a reduced optical density slope at a wavelength of 340 nm within three minutes. A lactate dehydrogenase activity unit is defined as a catalytic consumption of […] NADH per minute.

HIF-1α = HIF-1α expressions in the brains of the ischemic rats, Western blot; format: in vivo, Sprague-Dawley (SD) rats
Source text: (§1) The ischemic rats are induced by an ischemia-reperfusion model to simulate transient focal cerebral ischemia in rats. Test animals are male Sprague-Dawley (SD) rats weighing 250-300 g. The rats are anesthetized with chloral hydrate (0.4 g/kg IP) and subjected to cerebral ischemia. The ischemia-reperfusion model is induced by ligations of bilateral common carotid arteries (CCAs) and a right middle cerebral artery (MCA). The bilateral CCAs are clamped with non-traumatic arterial clips, and the right MCA is ligated with an 10-0 nylon suture. After 90 minutes ischemia, the suture on the MCA and the arterial clips on CCAs are removed to allow reperfusion. Core body temperature is monitored with a thermistor probe (Hewlett-Packard Model 21090A probe, Hewlett-Packard Company, Andover, Mass.), and maintained at 37° C. with a heating pad during anesthesia. After recovery from anesthesia, rat body temperature is maintained at 37° C. with a heat lamp.
(§2) The ischemia-reperfusion model is established as described above. The ischemic rats are injected intraperitonealy with different dosages of the Compound 1 (0.1 mg/kg, 1 mg/kg and 10 mg/kg) at 4 hours after MCA ligation for three consecutive days. Sham rats undergo same protocol with the exception of the ligation of the bilateral CCAs and the right MCA. The rats only injected a vehicle are used as the control. The ischemic rats are decapitated at 4 hours, 16 hours, 24 hours, 36 hours and 72 hours after the Compound 1 injection. The Bmi-1 expressions and the HIF-1α expressions of the ischemic rats are detected by the Western blot analysis.
(§3) The ischemic rats are further treated with 100 mg/kg of the 2-ME2 or stereotaxic injected with the LV-Bmi-1-sh or the LV-control-sh to inhibit the HIF-1α expressions and the Bmi-1 expressions, and then the ischemic rats are treated with 1 mg/kg of the Compound 1. The effect of the administration of the Compound 1 on the Bmi-1 expressions in the brains of the ischemic rats which are reduced the Bmi-1 expressions or the HIF-1α expressions are detected by the Western blot analysis.

Bmi-1 = Bmi-1 expressions in the brains of the ischemic rats, Western blot; format: in vivo, Sprague-Dawley (SD) rats
Source text: as §1, §2, §3

ischemic rats [2] = assay: Volume of the infarction after cerebral ischemia, TTC staining; format: in vivo, Sprague-Dawley (SD) rats; details: 0.1, 1, 10 mg/kg intraperitoneal, 2 days after treatment, vs control, in particular 1 mg/kg, FIGS. 17A, 17B
Source text: as §1
In addition, the ischemic rats are intraperitoneal injected with different dosages of the Compound 1 (0.1 mg/kg, 1 mg/kg and 10 mg/kg). The ischemic rats intraperitoneal injected with vehicle are used as the control. At 2 days after the Compound 1 treatment, the ischemic rats are intracardially perfused with PBS. The brain tissues are removed, immersed in cold PBS, and sliced into 2-mm-thick sections. […]

ischemic rats [3] = assay: Body swing test; format: in vivo, Sprague-Dawley (SD) rats; details: 1 mg/kg, vs control group; 1, 7, 14 and 28 days after the injection, FIG. 19A
Source text: as §1, with “lamp. […]” for “lamp.”
The body swing test is used to assess body asymmetry after MCA ligation. Initially, the ischemic rats are suspended by their tail 10 cm above the cage floor, and lateral body movements are recorded. Specifically, the frequency with which the initial head swing contra-lateral to the ischemic side is counted in twenty consecutive tests and is normalized to the baseline score.

ischemic rats [4] = assay: Grip strength test; format: in vivo, Sprague-Dawley (SD) rats; details: 1 mg/kg, vs control group, FIG. 20
Source text: as §1, with “After recovery from anesthesia, rat body temperature is maintained at 37° C. with a heat lamp.” left out
The grip strength is analyzed using Grip Strength Meter (TSE-Systems). In brief, the grip strength of each forelimb of the ischemic rat is measured separately from the mean of 20 pulls, and the ratio of ipsilateral grip strength to contralateral grip strength is calculated. In addition, the ratio of grip strength post-cell-treatment and pre-cell-treatment is also calculated, and the changes are presented as a percentage of the pre-cell-treatment value.

[5] = 1 mg/kg, 4 to 72 hours after injection, FIG. 13A
[6] = 0.1, 1, 10 mg/kg tested, 36 hours, FIG. 13B

Structure (SMILES) | LDH release rate of the PCCs treated with H2O2 ([1]; compound 0.1 μM, FIG. 1G) [%] | LDH release rate of the PCCs treated with H2O2 ([1]; compound 100 μM, 10^-4 mol/L H2O2, 24 hours, FIG. 1F) | concentration at which the LDH release rate of the PCCs is reduced most ([1]; tested 0.1, 1, 10 and 100 μM, FIG. 1G) [µM] | treatment time with the highest HIF-1α expression (HIF-1α; [5]) [h] | HIF-1α expressions in the brains of the ischemic rats (HIF-1α; 0.1, 1, 10 mg/kg intraperitoneal, vs control and sham rats, FIGS. 13A, 13B) | dosage with the highest HIF-1α expression (HIF-1α; [6]) [mg/kg] | treatment time with the highest Bmi-1 expression (Bmi-1; [5]) [h] | Bmi-1 expressions in the brains of the ischemic rats (Bmi-1; 0.1, 1, 10 mg/kg intraperitoneal, vs control and sham rats, FIGS. 13A to 13C) | dosage with the highest Bmi-1 expression (Bmi-1; [6]) [mg/kg] | volume of the infarction (TTC staining) (ischemic rats [2]) | neurological recovery in the body swing test (ischemic rats [3]) | grip strength ratio (ischemic rats [4]) | increased Bmi-1 expressions by the Compound 1 treatment in brains of ischemic rats (Bmi-1; 100 mg/kg 2-ME2 plus 1 mg/kg Compound 1, FIG. 13C)
COC(=O)C1=CO[C@@H](O)[C@@H]2C(COC(=O)[C@@H](N)Cc3ccccc3)=CC[C@H]12 [Compound 1] | 30 | lower LDH release rate; also recorded: reduces most LDH release rate | 100 | 4 | significantly increases | 1 | 36 | significantly increases | 1 | much smaller | much more neurological recovery | much better | 
COc1cc2c(cc1O)CC[C@@H]1[C@@H]2CC[C@]2(C)[C@@H](O)CC[C@@H]12 [Compound 2-ME2, 2-Methoxyestradiol, reference compound] |  |  |  |  |  |  |  |  |  |  |  |  | inhibited
